Results from the NIST ThermoML archive (doi:10.1021/je049743g).
Several values for one entry are separate records, joined by “and”; a condition that tells them apart may be missing. Equal values may be shown once.

Test: wn = mass fraction of the nth substance listed
Conditions: Capillary rise

FC(C(F)(F)F)C(F)(F)F [1,1,1,2,3,3,3-heptafluoropropane] + FCF
Conditions	surface tension liquid-gas
293.83 K, w2 = 0.3843	6.74 mN/m
293.91 K, w2 = 0.7179	7.04 mN/m and 7.05 mN/m
295.16 K, w2 = 0.3381	6.6 mN/m
295.43 K, w2 = 0.2853	6.55 mN/m
295.48 K, w2 = 0.2853	6.53 mN/m
295.5 K, w2 = 0.7173	6.81 mN/m and 6.83 mN/m
295.61 K, w2 = 0.5282	6.53 mN/m
296.02 K, w2 = 0.3832	6.41 mN/m and 6.4 mN/m
296.82 K, w2 = 0.3372	6.36 mN/m
297.36 K, w2 = 0.3826	6.2 mN/m
297.42 K, w2 = 0.2844	6.35 mN/m and 6.32 mN/m
297.68 K, w2 = 0.5271	6.29 mN/m
297.86 K, w2 = 0.3366	6.21 mN/m
299.17 K, w2 = 0.3817	6.01 mN/m
299.22 K, w2 = 0.2835	6.13 mN/m and 6.1 mN/m
299.29 K, w2 = 0.3358	6.06 mN/m and 6.07 mN/m
299.5 K, w2 = 0.7156	6.17 mN/m
299.8 K, w2 = 0.5259	6.04 mN/m and 6.03 mN/m
301.27 K, w2 = 0.3346	5.76 mN/m
301.41 K, w2 = 0.2825	5.8 mN/m and 5.82 mN/m
301.58 K, w2 = 0.5249	5.78 mN/m and 5.77 mN/m
301.63 K, w2 = 0.7146	5.9 mN/m
301.75 K, w2 = 0.3803	5.66 mN/m and 5.69 mN/m
303.27 K, w2 = 0.3335	5.52 mN/m
303.33 K, w2 = 0.3795	5.49 mN/m and 5.54 mN/m
303.46 K, w2 = 0.2815	5.55 mN/m
303.55 K, w2 = 0.7137	5.59 mN/m
303.87 K, w2 = 0.5235	5.48 mN/m and 5.44 mN/m
305.17 K, w2 = 0.3785	5.35 mN/m and 5.33 mN/m
305.26 K, w2 = 0.3323	5.3 mN/m and 5.29 mN/m
305.28 K, w2 = 0.2805	5.35 mN/m and 5.37 mN/m
305.75 K, w2 = 0.7126	5.34 mN/m
306.29 K, w2 = 0.5221	5.16 mN/m and 5.13 mN/m
307.23 K, w2 = 0.3774	5.01 mN/m and 5.06 mN/m
307.24 K, w2 = 0.3311	5.08 mN/m
307.36 K, w2 = 0.7118	5.04 mN/m
307.39 K, w2 = 0.5214	4.94 mN/m
307.96 K, w2 = 0.2792	5.04 mN/m and 5.05 mN/m
309.18 K, w2 = 0.3299	4.8 mN/m
309.34 K, w2 = 0.2785	4.87 mN/m and 4.85 mN/m
309.43 K, w2 = 0.7107	4.7 mN/m
309.63 K, w2 = 0.3761	4.63 mN/m and 4.67 mN/m
309.81 K, w2 = 0.5198	4.64 mN/m and 4.63 mN/m
311.24 K, w2 = 0.3286	4.61 mN/m
311.26 K, w2 = 0.3752	4.45 mN/m and 4.48 mN/m
311.28 K, w2 = 0.7097	4.51 mN/m
311.62 K, w2 = 0.2773	4.59 mN/m and 4.55 mN/m
311.74 K, w2 = 0.5186	4.38 mN/m and 4.36 mN/m
313.21 K, w2 = 0.374	4.26 mN/m and 4.22 mN/m
313.22 K, w2 = 0.2764	4.42 mN/m
313.26 K, w2 = 0.7086	4.22 mN/m
313.35 K, w2 = 0.5175	4.15 mN/m and 4.17 mN/m
313.51 K, w2 = 0.3271	4.32 mN/m
315.28 K, w2 = 0.326	4.12 mN/m and 4.13 mN/m
315.3 K, w2 = 0.3728	4.06 mN/m and 4.09 mN/m
315.39 K, w2 = 0.7074	3.96 mN/m
315.43 K, w2 = 0.2752	4.14 mN/m and 4.13 mN/m
315.61 K, w2 = 0.5159	3.88 mN/m
317.24 K, w2 = 0.3247	3.88 mN/m
317.3 K, w2 = 0.7064	3.7 mN/m
317.43 K, w2 = 0.2742	3.91 mN/m and 3.89 mN/m
317.69 K, w2 = 0.5145	3.61 mN/m and 3.63 mN/m
318.29 K, w2 = 0.371	3.63 mN/m and 3.62 mN/m
319.25 K, w2 = 0.3234	3.64 mN/m
319.52 K, w2 = 0.705	3.38 mN/m
319.58 K, w2 = 0.273	3.7 mN/m and 3.67 mN/m
319.63 K, w2 = 0.3702	3.5 mN/m
320 K, w2 = 0.5129	3.33 mN/m and 3.32 mN/m
321.27 K, w2 = 0.3692	3.29 mN/m
321.3 K, w2 = 0.322	3.39 mN/m and 3.38 mN/m
321.31 K, w2 = 0.7039	3.12 mN/m
321.42 K, w2 = 0.5118	3.13 mN/m and 3.14 mN/m
321.54 K, w2 = 0.2719	3.45 mN/m and 3.42 mN/m
323.2 K, w2 = 0.3207	3.23 mN/m
323.5 K, w2 = 0.7025	2.88 mN/m and 2.87 mN/m
323.69 K, w2 = 0.2707	3.19 mN/m
323.72 K, w2 = 0.5102	2.92 mN/m
323.76 K, w2 = 0.3677	3.03 mN/m and 3.01 mN/m
325.23 K, w2 = 0.3193	3.04 mN/m
325.29 K, w2 = 0.3668	2.85 mN/m
325.3 K, w2 = 0.7013	2.63 mN/m
325.42 K, w2 = 0.2697	2.96 mN/m and 2.95 mN/m
325.89 K, w2 = 0.5085	2.57 mN/m and 2.59 mN/m
327.16 K, w2 = 0.2688	2.8 mN/m and 2.78 mN/m
327.31 K, w2 = 0.3656	2.59 mN/m and 2.58 mN/m
327.31 K, w2 = 0.7	2.43 mN/m and 2.44 mN/m
327.4 K, w2 = 0.3179	2.74 mN/m and 2.73 mN/m
327.68 K, w2 = 0.5072	2.37 mN/m and 2.38 mN/m
329.3 K, w2 = 0.3166	2.54 mN/m
329.34 K, w2 = 0.6987	2.15 mN/m and 2.16 mN/m
329.35 K, w2 = 0.5059	2.18 mN/m and 2.19 mN/m
329.37 K, w2 = 0.2676	2.6 mN/m and 2.59 mN/m
329.44 K, w2 = 0.3643	2.43 mN/m
331.47 K, w2 = 0.5043	2.01 mN/m
331.57 K, w2 = 0.315	2.24 mN/m
331.61 K, w2 = 0.6971	1.87 mN/m
331.65 K, w2 = 0.2663	2.36 mN/m and 2.37 mN/m
331.73 K, w2 = 0.3629	2.15 mN/m
333.37 K, w2 = 0.2654	2.19 mN/m
333.4 K, w2 = 0.3138	2.06 mN/m
333.48 K, w2 = 0.3618	1.95 mN/m
333.48 K, w2 = 0.6959	1.63 mN/m
333.55 K, w2 = 0.5028	1.75 mN/m and 1.72 mN/m
